Data on 4 molecules can be found in patent US20120288554A1, “CANFOSFAMIDE MONOTHERAPY FOR TREATING MULTIPLE MYELOMA” (Telik, Inc., priority 2011, published 2012).

Where a name gives a salt, the structure may show the parent alone. Read-outs that look alike come from different tables or passages of the source.

The subject of data set [1] is multiple myeloma. Conditions: cited from earlier work.
In data set [2] the test system is refractory or relapsed multiple myeloma.
Procedure: This example is a single arm, open label, Phase 2 clinical test that tests the safety and efficacy of canfosfamide monotherapy for the treatment of refractory or relapsed multiple myeloma. Refractory or relapsed multiple myeloma patients were administered canfosfamide hydrochloride in an amount of 1000 mg/m^2, intravenously (IV), over 30 minutes, once every 2 weeks (a cycle of therapy). Response was assessed after every 3 cycles of therapy.

Take `CC(C)C[C@H](NC(=O)[C@H](Cc1ccccc1)NC(=O)c1cnccn1)B(O)O` [Bortezomib, bortezomib]: the Peripheral neuropathy entry in data set [1] (patients with multiple myeloma) was “dose-limiting toxicity”.

With `Nc1cccc2c1CN(C1CCC(=O)NC1=O)C2=O` (stereo not shown) [Lenalidomide, lenalidomide], the “Venous thromboembolic (VTE) adverse effects” value in data set [1] (nearly all lenalidomide trials) is reported as “increased risk of VTE”.

Take `O=C1CCC(N2C(=O)c3ccccc3C2=O)C(=O)N1` (stereo not shown) [Thalidomide, thalidomide]: the Partial remission rate entry in data set [1] (thalidomide alone, relapsed/refractory multiple myeloma patients) is on record as “about 30 % of patients”.

As for `N[C@@H](CCC(=O)N[C@@H](CS(=O)(=O)CCOP(=O)(N(CCCl)CCCl)N(CCCl)CCCl)C(=O)N[C@@H](C(=O)O)c1ccccc1)C(=O)O` [canfosfamide hydrochloride], the “IFE (with 24 hour UPEP)” value in data set [2] (Patient No. 1, after cycle #3) is recorded as “only IFE positive”. Further, the “Lambda FLC” value in data set [2] (Patient No. 1, after cycle #3, baseline 0.19 mg/dL) was “Lambda FLC: 0.23 mg/dL”; in data set [2] (Patient No. 1, after cycle #6), “Lambda FLC: 0.62 mg/dL”; in data set [2] (Patient No. 2, after cycle #3, baseline 282 mg/dL) it was “Lambda FLC: 218 mg/dL”. Also, the “Kappa FLC (monoclonal free light chains)” value in data set [2] (Patient No. 1, after cycle #3, baseline 3.94 mg/dL) was “Kappa FLC: 1.66 mg/dL”. Besides, in data set [2] (Patient No. 1, after cycle #3, baseline 0.4 grams), the “24 hour UPEP (urine protein electrophoresis)” value was 24 hour UPEP: 0.2 grams with. The “FLC Ratio (kappa to lambda)” value in data set [2] (Patient No. 1, after cycle #3, baseline 20.74) is “FLC Ratio: 7.22”. The “SPEP M-spike (serum protein electrophoresis monoclonal protein level)” value in data set [2] (Patient No. 1, after cycle #3 of monotherapy, 1000 mg/m^2 IV once every 2 weeks, baseline 1.3 g/dL) was “SPEP M-spike: 1.0 g/dL”. The “FLC Ratio” value in data set [2] (Patient No. 1, after cycle #6) is given as “FLC Ratio: 2.32”. Also, the IFE entry in data set [2] (Patient No. 1, after cycle #6) is “albumin and IFE: negative”. For the same molecule, the “Kappa FLC” value in data set [2] (Patient No. 1, after cycle #6) is recorded as “Kappa FLC: 1.44 mg/dL”; in data set [2] (Patient No. 2, after cycle #3, baseline <0.11 mg/dL), “Kappa FLC: <0.11 mg/dL”. In addition, the Overall disease response result in data set [2] (Patient No. 1, after cycle #6) is recorded as ““partial response.””. Besides, in data set [2] (Patient No. 1, after cycle #6, baseline 75%), the “Bone Marrow Biopsy plasma cells” value is “Bone Marrow Biopsy: 20%”. Moreover, the “24 hour UPEP” value in data set [2] (Patient No. 1, after cycle #6, with albumin) is 24 hour UPEP: 0.5 grams with; in data set [2] (Patient No. 2, after cycle #3, baseline 7.9 grams) it was 24 hour UPEP: 5.8 grams. The “SPEP M-spike” value is “SPEP M-spike: 0.18 g/dL” in data set [2] (Patient No. 1, after cycle #6 of monotherapy, baseline 1.3 g/dL) and “SPEP M-spike: 3.18 g/dL” in data set [2] (Patient No. 2, after cycle #3 of monotherapy, baseline 5.37 g/dL). Further, the “Response to monotherapy on follow-up” value in data set [2] (Patient no. 1, 6 weeks and 12 weeks after initiating treatment) is reported as “continued to respond”. Further, in data set [2] (after the first cycle of administration), the Tumor lysis syndrome entry was “observed”. Moreover, in data set [2] (multiple myeloma refractory to combination chemotherapy and/or radiation or stem cell transplantation), the Efficacy as monotherapy result is given as “effective as monotherapy”. Moreover, the “Patients demonstrating positive treatment outcomes” value in data set [2] (of the three multiple myeloma patients treated) was “two”.
